Measurements reported in PubChem BioAssay (NCI).
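These data come from cells grown in 96-well plates and exposed to compound for 48 hours at five concentrations. TGI: total growth inhibition.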

How the values were obtained:
Test in all cases: inhibition of tumour cell growth, NCI panel, 48 h
[1] = system: 786-0 renal
[2] = system: A498 renal
[3] = system: A549 NSCLC
[4] = system: ACHN renal
[5] = system: BT-549 breast
[6] = system: CAKI-1 renal
[7] = system: CCRF-CEM leukemia
[8] = system: COLO 205 colon
[9] = system: DU-145 prostate
[10] = system: EKVX NSCLC
[11] = system: HCT-116 colon
[12] = system: HCT-15 colon
[13] = system: HOP-62 NSCLC
[14] = system: HOP-92 NSCLC
[15] = system: HS 578T breast
[16] = system: HT29 colon
[17] = system: IGROV1 ovarian
[18] = system: K-562 leukemia
[19] = system: KM12 colon
[20] = system: LOX IMVI melanoma
[21] = system: M14 melanoma
[22] = system: MALME-3M melanoma
[23] = system: MCF7 breast
[24] = system: MDA-MB-231 breast
[25] = system: MDA-MB-435
[26] = system: MOLT-4 leukemia
[27] = system: NCI-H226 lung
[28] = system: NCI-H23 lung
[29] = system: NCI-H460 lung
[30] = system: NCI-H522 lung
[31] = system: NCI/ADR-RES ovarian
[32] = system: OVCAR-3 ovarian
[33] = system: OVCAR-4 ovarian
[34] = system: OVCAR-5 ovarian
[35] = system: OVCAR-8 ovarian
[36] = system: PC-3 prostate
[37] = system: RPMI-8226 leukemia
[38] = system: RXF 393 renal
[39] = system: SF-268 CNS
[40] = system: SF-295 CNS
[41] = system: SF-539 CNS
[42] = system: SK-MEL-2 melanoma
[43] = system: SK-MEL-28 melanoma
[44] = system: SK-MEL-5 melanoma
[45] = system: SK-OV-3 ovarian
[46] = system: SN12C renal
[47] = system: SNB-19 CNS
[48] = system: SNB-75 CNS
[49] = system: SR leukemia
[50] = system: SW-620 colon
[51] = system: T-47D breast
[52] = system: TK-10 renal
[53] = system: U251 CNS
[54] = system: UACC-257 melanoma
[55] = system: UACC-62 melanoma
[56] = system: UO-31 renal

Question: Which results are given for `Oc1ccc(N=Cc2ccc(C=Nc3ccc(O)cc3)cc2)cc1`?
Answer: TGI [1]: 31.4 µM; TGI [2]: 94.2 µM; TGI [3]: 38.4 µM; TGI [4]: 26 µM; TGI [5]: 33.8 µM; TGI [6]: 35.1 µM; TGI [7]: 30.7 µM; TGI [8]: 39.2 µM; TGI [9]: 32.4 µM; TGI [10]: 83.6 µM; TGI [11]: 36.8 µM; TGI [12]: 29.1 µM; TGI [13]: 37.1 µM; TGI [14]: 62.7 µM; TGI [15]: 60.1 µM; TGI [16]: 89.4 µM; TGI [17]: 39 µM; TGI [18]: 40.4 µM; TGI [19]: 33.3 µM; TGI [20]: 41.4 µM; TGI [21]: 34.5 µM; TGI [22]: 34.4 µM; TGI [23]: > 100 µM; TGI [24]: 27.7 µM; TGI [25]: 32.7 µM; TGI [26]: 20 µM; TGI [27]: 29.5 µM; TGI [28]: 34.8 µM; TGI [29]: 72.7 µM; TGI [30]: 59.9 µM; TGI [31]: 34.2 µM; TGI [32]: 32.6 µM; TGI [33]: 29.6 µM; TGI [34]: 38.7 µM; TGI [35]: 29.3 µM; TGI [36]: 33 µM; TGI [37]: 81.6 µM; TGI [38]: 34.9 µM; TGI [39]: 30.8 µM; TGI [40]: 32.3 µM; TGI [41]: 28.6 µM; TGI [42]: 49.9 µM; TGI [43]: 37.3 µM; TGI [44]: 29.8 µM; TGI [45]: 32.4 µM; TGI [46]: 28.5 µM; TGI [47]: 31.6 µM; TGI [48]: 41.5 µM; TGI [49]: 25.9 µM; TGI [50]: 45.8 µM; TGI [51]: > 100 µM; TGI [52]: 34 µM; TGI [53]: 27.6 µM; TGI [54]: 32.4 µM; TGI [55]: 25.5 µM; TGI [56]: 34 µM

Question: What does the source list for `Cn1cnc([N+](=O)[O-])c1[Se]c1ncnc2nc[nH]c12`?
Answer: TGI [1]: 26.5 µM; TGI [2]: 37 µM; TGI [3]: > 100 µM; TGI [4]: 83.5 µM; TGI [5]: 33.8 µM; TGI [6]: 22.1 µM; TGI [7]: 34.1 µM; TGI [8]: 33.3 µM; TGI [9]: > 100 µM; TGI [10]: 47.4 µM; TGI [11]: 74.5 µM; TGI [12]: 81.6 µM; TGI [13]: 50.3 µM; TGI [14]: 27.9 µM; TGI [15]: 39.9 µM; TGI [16]: 84.4 µM; TGI [17]: > 100 µM; TGI [18]: 25.6 µM; TGI [19]: 54.1 µM; TGI [20]: 10.8 µM; TGI [21]: 24.8 µM; TGI [22]: 21.1 µM; TGI [23]: 41.8 µM; TGI [24]: 19.2 µM; TGI [25]: 19.5 µM; TGI [26]: 22 µM; TGI [27]: 22.6 µM; TGI [28]: 61.1 µM; TGI [29]: > 100 µM; TGI [30]: 14.7 µM; TGI [31]: > 100 µM; TGI [32]: 29.5 µM; TGI [33]: 23.5 µM; TGI [34]: 36.2 µM; TGI [35]: 32.2 µM; TGI [36]: > 100 µM; TGI [37]: 71.7 µM; TGI [38]: 38.7 µM; TGI [39]: 78.9 µM; TGI [40]: > 100 µM; TGI [41]: 30.9 µM; TGI [42]: 34.5 µM; TGI [43]: 20.3 µM; TGI [44]: 6.6 µM; TGI [45]: > 100 µM; TGI [46]: 32.8 µM; TGI [47]: 85.8 µM; TGI [48]: > 100 µM; TGI [49]: 17 µM; TGI [50]: 26.8 µM; TGI [51]: 32.8 µM; TGI [52]: > 100 µM; TGI [53]: 44 µM; TGI [54]: 16.8 µM; TGI [55]: 10.1 µM; TGI [56]: 60 µM
